Converted amounts (≈) assume the structure as drawn. Where two headings read alike, the source gives them in different places.
Key:
[1] = test system: Hartley-derived albino guinea pigs
[2] = Interfacial tension predictions (Washburn method, Fowkes theory); type: physicochemical
Protocol: Based on the contact angle data, the surface energy is calculated and polar and dispersive components of surface energy as well as surface polarity are estimated.
A surface tension study was performed to characterize active agent samples, various oils and specific formulations for Surface energy with polar and dispersive components. The Washburn method was used to determine contact angles and the Fowkes theory was used to calculate surface energies.
Surface tension measurements were performed on several oils and the following formulations: OT1.0016P (elastomer-MCT oil-based formulation), OT1.0021P (elastomer-based formulation comprising a combination of MCT oil, squalane and isopropyl isostearate) and OT1.0022P (elastomer-based formulation comprising a combination of MCT oil, squalane and oleyl alcohol).

[3] = AD murine model: body weight
Protocol: Atopic Dermatitis is induced by once daily application for 38 days of 100 μl of 0.5% 2,4-dinitrochlorobenzene (DNCB) solution onto the shaved back skin of mice. Starting on day 32, test formulations are administered once daily onto the shaved back skin of mice in addition to DNCB. Several measurements are taken at different time points:
Daily from Day 32: Body weight, mortality, behaviour (scratching), general condition, AD index.

[4] = Skin penetration (IVPT), vertical diffusion cell, LC-MS/MS; type: in vitro ADME, human; conditions: for Dermis concentration, μg/g Based on the Mean (n = 5) / Epidermis concentration, μg/g Based on the Mean (n = 5): estimated, skin 500 μm; for Dermis concentration, μg/g Based on the Mean (n = 5) / Epidermis concentration, μg/g Based on the Mean (n = 5) / estimated concentration of active in epidermis: epidermis assumed 80 μm, density 1.0 g/cm^3; for fingolimod concentration in receptor fluid: quantitation limit of LC-MS method
Protocol: The skin is dosed with approx. 6 mg of formulation to achieve a dose of ˜10 mg/cm2. Receptor solution is collected at pre-determined intervals over the course of 24 hours and analyzed using a liquid chromatography with tandem mass spectrometry (LC-MS/MS) analytical method.
Following 24 hours, the residual formulation is removed from the surface of the skin. The skin surface is tape-stripped up to five times to remove residual formulation and the top of the skin surface layers (Stratum Corneum). The epidermis is then heat-separated from the dermis. The active agent is extracted from the skin layers and the amount of active agent delivered to the epidermis and dermis is then determined by LC-MS/MS.

[5] = Chemical stability of topical formulations (HPLC); type: physicochemical
Protocol: Where another active agent such as fingolimod is present in the formulations the samples are analysed for that active agent and its degradation products by HPLC. […] The gradient elution is employed.

[6] = Visual solubility determination of Fingolimod free base in organic solvents at RT; type: physicochemical; conditions: for solubility: organic solvent or mixture, thermodynamic from solid, visual determination at RT
Protocol: A visual solubility evaluation of Fingolimod free base was performed.

[7] = Toxicokinetic / pK evaluation in Gottingen Minipigs (plasma tofacitinib, whole blood fingolimod and fingolimod phosphate); conditions: minipig, topical
Protocol: (§1) The animals are not fasted prior to blood collection, with the exception of the intervals that coincide with fasting for clinical pathology collections.
(§2) If necessary, the samples are frozen on dry ice prior to being placed in the freezer. […] Samples are stored at the bioanalytical laboratories in a freezer set to maintain −80±10° C. until analysis.
(§3) Samples designated for analysis of fingolimod and fingolimod phosphate are mixed gently, lysed with an equal volume of deionized water, vortexed for approximately 1 minute, divided into two approximately equal aliquots, transferred to uniquely labeled polypropylene tubes and frozen in a freezer set to maintain −70° C. If necessary, the samples are frozen on dry ice prior to being placed in the freezer. The samples for fingolimod analysis are shipped with a temperature monitoring device to bioanalytical laboratories. Samples are stored at the bioanalytical laboratories in a freezer set to maintain −75±15° C. until analysis.
(§4) Whole blood is analyzed for concentration of fingolimod and fingolimod phosphate using a validated analytical procedure for the simultaneous quantitation of both analytes.
(§5) TK samples collected on Days 49 and 56 from recovery animals in Groups 1, 2, 3, 5, and 6 are also analyzed. Statistical analyses including regression analysis and descriptive statistics including arithmetic means and standard deviations, accuracy, and precision are performed. Incurred sample reanalysis may be performed as part of this study according to the Test Site SOPs.
(§6) A non-compartmental approach consistent with the dermal route of administration is used for parameter estimation.
(§7) Partial AUCs (between 2 defined sample times), and corresponding dose-normalized values, are derived and reported to aid interpretation. Descriptive statistics (e.g., number, arithmetic mean, median, standard deviation, standard error, coefficient of variation) are reported as deemed appropriate, as well as ratios for appropriate grouping and sorting variables (e.g. AUC and/or Cmax female/male ratios, AUC and/or Cmax metabolite/parent drug ratios).

[8] = in vivo; conditions: both, Gottingen, minipig, plasma (tofacitinib); whole blood (fingolimod), topical
Protocol: as §1, §2, §3, §4, §5, §6, §7

[9] = test system: Atopic Dermatitis induced by 2,4-dinitrochlorobenzene (DNCB); assay: AD murine model: AD index (ADI, mADI), behaviour, histological analysis of skin; type: in vivo; conditions: DNCB induced mice, Example 41 (combination study)
Text: As used herein, “Atopic Dermatitis Index (ADI)” refers to the sum of the scores of four factors consisting of: (1) the presence of erythema/haemorrhage on the skin, (2) edema/thickening of the skin, (3) excoriation/erosion of the skin and (4) dryness/peeling of the skin at the area of induction of atopic dermatitis. The sum of the scores of these factors provides a combined ADI, on a scale of 0 to 12. […]
The presence of erythema/haemorrhage is scored based on the following scoring grid: • 0=no or no more erythema/haemorrhage on the skin, • 1=weak erythema/haemorrhage on the skin, • 2=moderate erythema/haemorrhage on the skin, • 3=severe erythema/haemorrhage on the skin.
The presence of edema/thickening is scored based on the following scoring grid: • 0=no or no more edema/thickening of the skin, • 1=weak edema/thickening of the skin, • 2=moderate edema/thickening of the skin, • 3=severe edema/thickening of the skin.
The presence of excoriation/erosion is scored based on the following scoring grid: • 0=no or no more excoriation/erosion of the skin, • 1=weak excoriation/erosion of the skin, • 2=moderate excoriation/erosion of the skin, • 3=severe excoriation/erosion of the skin. […]

[10] = test system: S1P receptors (S1P1 and S1P3-5); conditions: cited from earlier work
[11] = Dermis, formulation of Table 42 (fingolimod HCl […])
[12] = Dermis, formulation of Table 43a
[13] = Epidermis, formulation of Table 43a
[14] = Receptor fluid, formulation of Table 42 (fingolimod HCl […])
[15] = Receptor fluid, formulation of Table 43a
[16] = formulation with 1.0% tofacitinib citrate and […] fingolimod hydrochloride
[17] = 2 months at 40° C., formulation of Table 38
[18] = 2 months at 50° C., formulation of Table 38
[19] = 3 weeks at 5° C., formulation of Table 38
[20] = 3 weeks at 50° C., formulation of Table 38

Compound: O=[N+]([O-])c1ccc(Cl)c([N+](=O)[O-])c1 [DNCB, 2,4-dinitrochlorobenzene]
- Group mean dermal scores, test animals ([1]; challenge with 0.05% w/v DNCB in acetone and ethanol, control animals 0.25): 0.6
- Group mean dermal scores, test animals ([1]; challenge with 0.1% w/v DNCB in acetone and ethanol, control animals 0.375): 1.45

Compound: C[C@@H]1CCN(C(=O)CC#N)C[C@@H]1N(C)c1ncnc2[nH]ccc12.O=C(O)CC(O)(CC(=O)O)C(=O)O [Tofacitinib Citrate micronized Lot TOF0000004-04]
- Interfacial Tension ([2]; with OT1.0016P): 2.72 mN/m
- Interfacial Tension ([2]; with OT1.0021P): 2.17 mN/m
- Interfacial Tension ([2]; with OT1.0022P): 1.95 mN/m
- Interfacial Tension ([2]; with Stainless Steel): 2.50 mN/m

Compound: C[C@@H]1CCN(C(=O)CC#N)C[C@@H]1N(C)c1ncnc2[nH]ccc12.O=C(O)CC(O)(CC(=O)O)C(=O)O [Tofacitinib Citrate non-micronized Lot TOF0000004]
- Interfacial Tension ([2]; with OT1.0016P): 1.88 mN/m
- Interfacial Tension ([2]; with OT1.0021P): 1.45 mN/m
- Interfacial Tension ([2]; with Stainless Steel): 1.62 mN/m

Compound: CC1(C)O[C@@H]2C[C@H]3[C@@H]4CCC5=CC(=O)C=C[C@]5(C)[C@@]4(F)[C@@H](O)C[C@]3(C)[C@]2(C(=O)CO)O1 [Triamcinolone acetonide]
- Mean body weights values: Weight D 32 ([3]; DNCB induced mice, Example 41, D 32 (treatment start)): 18.31
- Mean body weights values: Weight D 39 ([3]; DNCB induced mice, Example 41, D 39): 15.66
- Mean Body Weight Change d 39 − d 32 ([3]; DNCB induced mice, Example 41, (+) weight gain, (−) weight loss): −2.65

Compound: CCCCCCCCc1ccc(CCC(N)(CO)CO)cc1 [fingolimod, 2-amino-2-[2-(4-octylphenyl)ethyl]propane-1,3-diol]
- Amount of Fingolimod recovered, % applied dose, Mean (n = 5) [4, 11]: 2.59%
- Amount of Fingolimod recovered, ng, Mean (n = 5) [4, 11]: 49.16 ng
- Amount of Fingolimod recovered, % applied dose, Mean (n = 5) [4, 12]: 1.44%
- Amount of Fingolimod recovered, ng, Mean (n = 5) [4, 12]: 14.82 ng
- Amount of Fingolimod recovered, % applied dose, Mean (n = 5) ([4]; Epidermis, formulation of Table 42 (fingolimod HCl […])): 1.98%
- Amount of Fingolimod recovered, % applied dose, Mean (n = 5) [4, 13]: 1.59%
- Amount of Fingolimod recovered, ng, Mean (n = 5) [4, 13]: 16.21 ng
- Amount of Fingolimod recovered, % applied dose, Mean (n = 5) [4, 14]: ND (ND—not detected (below LOQ of 0.25 ng/mL))
- Amount of Fingolimod recovered, ng, Mean (n = 5) [4, 14]: ND (ND—not detected (below LOQ of 0.25 ng/mL))
- Amount of Fingolimod recovered, % applied dose, Mean (n = 5) [4, 15]: ND (ND—not detected (below LOQ of 0.25 ng/ml))
- Amount of Fingolimod recovered, ng, Mean (n = 5) [4, 15]: ND (ND—not detected (below LOQ of 0.25 ng/ml))
- Dermis concentration, μg/g Based on the Mean (n = 5) ([4]; formulation of Table 43a): 0.6 µg/g
- Epidermis concentration, μg/g Based on the Mean (n = 5) ([4]; formulation of Table 43a): 3.4 µg/g
- fingolimod concentration in receptor fluid ([4]; formulation containing […] of fingolimod hydrochloride): < 0.25 ng/mL
- estimated concentration of active in dermis [4, 16]: 0.6 µg/mL
- estimated concentration of active in epidermis [4, 16]: 3.4 µg/g
- fingolimod concentration in receptor fluid [4, 16]: < 0.25 ng/mL
- Assay, % LC [5, 17]: 97.2 % LC
- Assay, % LC [5, 18]: 95.0 % LC
- Assay, % LC [5, 19]: 100.3 % LC
- Assay, % LC ([5]; 3 weeks at 40° C., formulation of Table 38): 99.9 % LC
- Assay, % LC [5, 20]: 94.1 % LC
- Assay, % LC ([5]; Initial, elastomer-based formulation of Table 38 (tofacitinib citrate 1.0%, fingolimod HCl 0.01%)): 99.9 % LC
- visual solubility ([6]; alcohols, RT): very good solubility
- visual solubility ([6]; most of organic solvents tested, RT): good solubility
- solubility ([6]; 2-Methyl tetrahydrofurane): 10000 µg/mL (≈ 32.5 mM)
- solubility ([6]; Acetone): 5000 µg/mL (≈ 16.3 mM)
- solubility ([6]; Acetonitrile): 1800 µg/mL (≈ 5.85 mM)
- solubility ([6]; Dichloromethane): 6700 µg/mL (≈ 21.8 mM)
- solubility ([6]; Ethyl acetate): 4000 µg/mL (≈ 13 mM)
- solubility ([6]; Isopropanol): 20000 µg/mL (≈ 65 mM)
- solubility ([6]; Methyl ethyl ketone): 1200 µg/mL (≈ 3.9 mM)
- solubility ([6]; Methyl isobutyl ketone): 5000 µg/mL (≈ 16.3 mM)
- solubility ([6]; tert-Butyl methyl ether): 2000 µg/mL (≈ 6.5 mM)
- visual solubility ([6]; water, toluene, diisopropyloxide and methyl ethyl ketone): very low soluble
- AUC(0-t) [7]: 3.73 ng·h/mL
- Cmax [7]: 0.467 ng/mL

Compound: C[C@@H]1CCN(C(=O)CC#N)C[C@@H]1N(C)c1ncnc2[nH]ccc12 [tofacitinib]
- Dermis concentration, μg/g Based on the Mean (n = 5) ([4]; formulation of Table 43a): 34.9 µg/g
- Epidermis concentration, μg/g Based on the Mean (n = 5) ([4]; formulation of Table 43a): 364.3 µg/g
- estimated concentration of active in dermis [4, 16]: 34.9 µg/g
- estimated concentration of active in epidermis [4, 16]: 364.3 µg/g
- Assay, % LC [5, 17]: 99.2 % LC
- Assay, % LC [5, 18]: 98.6 % LC
- Assay, % LC [5, 19]: 99.3 % LC
- Assay, % LC [5, 20]: 99.1 % LC
- Cmax [8]: 1.56 ng/mL

Compound: CC1(C)O[C@@H]2C[C@H]3[C@@H]4CCC5=CC(=O)C=C[C@]5(C)[C@@]4(F)[C@@H](O)C[C@]3(C)[C@]2(C(=O)CO)O1 [triamcinolone acetonide]
- Mean ADI values (AD Index) D 39 [9]: 0.88

Compound: Triamcinolone
- Body weight D39 Mean ([3]; mouse, in vivo): 17.7 g
- Body weight D39 mean ([3]; mouse, in vivo): 17.1 g
- Mean Body Weight Change Day 39 − Day 32, Study 1 ([3]; mouse, in vivo): −2.80
- Mean Body Weight Change Day 39 − Day 32, Study 2 ([3]; mouse, in vivo): −2.06
- Mean Body Weight Change d 39 − d 32 ([3]; mouse, in vivo): −2.80

Compound: fingolimod-phosphate
- affinity to four of the five S1P receptors (S1P1 and S1P3-5) [10]: 0.3 to 3.1 nM
